Experimental data as given in patent US20250353841A1 (BIOGEN MA INC., priority 2022, published 2025).

System: mutant Huntington (HTT) protein
Assay: HTT Mutant HTRF iPSC assay (mHTT protein lowering)
Format: cell-based
Conditions: human iPSC derived from a HTT patient with a poly-Q49 mutation

SMILES | IC50
Cc1cn2nc(-c3cc(F)c4nc(NC(=O)C5CCN(C)CC5)cn4c3)cc(C)c2n1 [Compound 269, N-(6-(2,8-dimethylimidazo[1,2-b]pyridazin-6-yl)-8-fluoroimidazo[1,2-a]pyridin-2-yl)-1-methylpiperidine-4-carboxamide] | < 100 nM
Cc1cn2nc(-c3cc(F)c4nc(NC(=O)C5(F)CNC5)cn4c3)cc(C)c2n1 [Compound 270, N-(6-(2,8-dimethylimidazo[1,2-b]pyridazin-6-yl)-8-fluoroimidazo[1,2-a]pyridin-2-yl)-3-fluoroazetidine-3-carboxamide] | < 100 nM
Cc1cn2nc(-c3cc(F)c4nc(NC(=O)C5CCNC6CC65)cn4c3)cc(C)c2n1 (stereo not drawn) [Compound 271, N-(6-(2,8-dimethylimidazo[1,2-b]pyridazin-6-yl)-8-fluoroimidazo[1,2-a]pyridin-2-yl)-2-azabicyclo[4.1.0] heptane-5-carboxamide] | < 100 nM
Cc1cn2nc(-c3cc(F)c4nc(NC(=O)CC5CCCN5)cn4c3)cc(C)c2n1 (stereo not drawn) [Compound 273, N-(6-(2,8-dimethylimidazo[1,2-b]pyridazin-6-yl)-8-fluoroimidazo[1,2-a]pyridin-2-yl)-2-(pyrrolidin-2-yl)acetamide] | < 100 nM
Cc1cn2nc(-c3cc(F)c4nc(NC(=O)CC5CCCCN5)cn4c3)cc(C)c2n1 (stereo not drawn) [Compound 274, N-(6-(2,8-dimethylimidazo[1,2-b]pyridazin-6-yl)-8-fluoroimidazo[1,2-a]pyridin-2-yl)-2-(piperidin-2-yl)acetamide] | < 100 nM
Cc1cn2nc(-c3cc(F)c4nc(NC(=O)CN5CCCCC5)cn4c3)cc(C)c2n1 [Compound 275, N-(6-(2,8-dimethylimidazo[1,2-b]pyridazin-6-yl)-8-fluoroimidazo[1,2-a]pyridin-2-yl)-2-(piperidin-1-yl)acetamide] | < 100 nM
Cc1cn2nc(-c3cc(F)c4nc(NC(=O)C5CC6(CNC6)C5)cn4c3)cc(C)c2n1 [Compound 276] | 100 to 1000 nM
Cc1cn2nc(-c3cc(F)c4nc(NC(=O)CC5CNC5)cn4c3)cc(C)c2n1 [Compound 281, 2-(azetidin-3-yl)-N-(6-(2,8-dimethylimidazo[1,2-b]pyridazin-6-yl)-8-fluoroimidazo[1,2-a]pyridin-2-yl)acetamide] | < 100 nM
Cc1cn2nc(-c3cc(F)c4nc(NC(=O)C5(C)CN(C6CC6)C5)cn4c3)cc(C)c2n1 [Compound 282, 1-cyclopropyl-N-(6-(2,8-dimethylimidazo[1,2-b]pyridazin-6-yl)-8-fluoroimidazo[1,2-a]pyridin-2-yl)-3-methylazetidine-3-carboxamide] | < 100 nM
Cc1cn2nc(-c3cc(F)c4nc(NC(=O)CC5CCNCC5)cn4c3)cc(C)c2n1 [Compound 284, N-(6-(2,8-dimethylimidazo[1,2-b]pyridazin-6-yl)-8-fluoroimidazo[1,2-a]pyridin-2-yl)-2-(piperidin-4-yl)acetamide] | 100 to 1000 nM
Cc1cn2nc(-c3cc(F)c4nc(NC(=O)C5CN(C6CC6)C5(C)C)cn4c3)cc(C)c2n1 (stereo not drawn) [Compound 285, 1-cyclopropyl-N-(6-(2,8-dimethylimidazo[1,2-b]pyridazin-6-yl)-8-fluoroimidazo[1,2-a]pyridin-2-yl)-2,2-dimethylazetidine-3-carboxamide] | 100 to 1000 nM
Cc1cn2nc(-c3cc(F)c4nc(NC(=O)[C@H]5C[C@H](N(C)C)C5)cn4c3)cc(C)c2n1 [Compound 288, (1r,3r)-3-(dimethylamino)-N-(6-(2,8-dimethylimidazo[1,2-b]pyridazin-6-yl)-8-fluoroimidazo[1,2-a]pyridin-2-yl)cyclobutane-1-carboxamide] | < 100 nM
Cc1cn2nc(-c3cc(F)c4nc(NC(=O)[C@H]5C[C@@H](N(C)C)C5)cn4c3)cc(C)c2n1 [Compound 289, (1s,3s)-3-(dimethylamino)-N-(6-(2,8-dimethylimidazo[1,2-b]pyridazin-6-yl)-8-fluoroimidazo[1,2-a]pyridin-2-yl)cyclobutane-1-carboxamide] | < 100 nM
Cc1cn2nc(-c3cc(F)c4nc(NC(=O)C5CN(C(C)C)C5)cn4c3)cc(C(F)F)c2n1 [Compound 290, N-[6-[8-(difluoromethyl)-2-methyl-imidazo[1,2-b]pyridazin-6-yl]-8-fluoro-imidazo[1,2-a]pyridin-2-yl]-1-isopropyl-azetidine-3-carboxamide] | < 100 nM
CC(C)N1CC(C(=O)Nc2cn3cc(-c4cc(F)c5nn(C)cc5c4)cc(F)c3n2)C1 [Compound 291, N-(8-fluoro-6-(7-fluoro-2-methyl-2H-indazol-5-yl)imidazo[1,2-a]pyridin-2-yl)-1-isopropylazetidine-3-carboxamide] | 100 to 1000 nM
Cc1cc(-c2cc(F)c3nc(NC(=O)C4CN(C(C)C)C4)cn3c2)nc2cn(C)nc12 [Compound 292, N-(6-(2,7-dimethyl-2H-pyrazolo[4,3-b]pyridin-5-yl)-8-fluoroimidazo[1,2-a]pyridin-2-yl)-1-isopropylazetidine-3-carboxamide] | < 100 nM
Cc1cn2nc(-c3cc(F)c4nc(NC(=O)C5CNC5)cn4c3)cc(C)c2n1 [Compound 294, N-[6-(2,8-dimethylimidazo[1,2-b]pyridazin-6-yl)-8-fluoro-imidazo[1,2-a]pyridin-2-yl]azetidine-3-carboxamide] | < 100 nM

SMILES | IC50
Cc1cn2nc(-c3cc(F)c4nc(NC(=O)C5CN(C(C)C)C5)cn4c3)cc2c(C)n1 [Compound 295, N-(6-(4,6-dimethylpyrazolo[1,5-a]pyrazin-2-yl)-8-fluoroimidazo[1,2-a]pyridin-2-yl)-1-isopropylazetidine-3-carboxamide] | < 100 nM
COc1cc(-c2cc(F)c3nc(NC(=O)C4CN(C(C)C)C4)cn3c2)nn2nc(C)nc12 [Compound 296, N-(8-fluoro-6-(8-methoxy-2-methyl-[1,2,4]triazolo[1,5-b]pyridazin-6-yl)imidazo[1,2-a]pyridin-2-yl)-1-isopropylazetidine-3-carboxamide] | < 100 nM
Cc1cn2nc(-c3cc(F)c4nc(NC(=O)C5CCN(C)CC5)nn4c3)cc(C)c2n1 [Compound 317, N-(6-(2,8-dimethylimidazo[1,2-b]pyridazin-6-yl)-8-fluoro-[1,2,4]triazolo[1,5-a]pyridin-2-yl)-1-methylpiperidine-4-carboxamide] | 100 to 1000 nM
Cc1cn2nc(-c3cc(F)c4nc(NC(=O)C5CC56CNC6)nn4c3)cc(C)c2n1 (stereo not drawn) [Compound 318] | 1000 to 9000 nM
Cc1cn2nc(-c3cc(F)c4nc(NC(=O)C5CNCC5(C)C)nn4c3)cc(C)c2n1 (stereo not drawn) [Compound 319, N-(6-(2,8-dimethylimidazo[1,2-b]pyridazin-6-yl)-8-fluoro-[1,2,4]triazolo[1,5-a]pyridin-2-yl)-4,4-dimethylpyrrolidine-3-carboxamide] | 1000 to 9000 nM
Cc1cn2nc(-c3cc(F)c4nc(NC(=O)C56CNC(C5)C6)nn4c3)cc(C)c2n1 [Compound 320, N-(6-(2,8-dimethylimidazo[1,2-b]pyridazin-6-yl)-8-fluoro-[1,2,4]triazolo[1,5-a]pyridin-2-yl)-2-azabicyclo[2.1.1]hexane-4-carboxamide] | 1000 to 9000 nM
Cc1cn2nc(-c3cc(F)c4nc(NC(=O)C5CCCCNC5)nn4c3)cc(C)c2n1 (stereo not drawn) [Compound 321, N-(6-(2,8-dimethylimidazo[1,2-b]pyridazin-6-yl)-8-fluoro-[1,2,4]triazolo[1,5-a]pyridin-2-yl)azepane-3-carboxamide] | 100 to 1000 nM
Cc1cn2nc(-c3cc(F)c4nc(NC(=O)C5CCNC(C)C5)nn4c3)cc(C)c2n1 (stereo not drawn) [Compound 322, N-(6-(2,8-dimethylimidazo[1,2-b]pyridazin-6-yl)-8-fluoro-[1,2,4]triazolo[1,5-a]pyridin-2-yl)-2-methylpiperidine-4-carboxamide] | 100 to 1000 nM
Cc1cn2nc(-c3cc(F)c4nc(NC(=O)C5CCNC56CC6)nn4c3)cc(C)c2n1 (stereo not drawn) [Compound 323, N-(6-(2,8-dimethylimidazo[1,2-b]pyridazin-6-yl)-8-fluoro-[1,2,4]triazolo[1,5-a]pyridin-2-yl)-4-azaspiro[2.4]heptane-7-carboxamide] | 100 to 1000 nM
Cc1cn2nc(-c3cc(F)c4nc(NC(=O)C5CN(C(C)C)C5)nn4c3)cc(C)c2n1 [Compound 324, N-[6-(2,8-dimethylimidazo[1,2-b]pyridazin-6-yl)-8-fluoro-[1,2,4]triazolo[1,5-a]pyridin-2-yl]-1-isopropyl-azetidine-3-carboxamide] | 1000 to 9000 nM
Cc1cn2nc(-c3cc(F)c4nc(NC(=O)C5CCN(C)CC5)nn4c3)cc(C)c2n1 [Compound 327, N-(6-(2,8-dimethylimidazo[1,2-b]pyridazin-6-yl)-8-fluoro-[1,2,4]triazolo[1,5-a]pyridin-2-yl)-1-methylpiperidine-4-carboxamide] | < 100 nM
Cc1cn2nc(-c3cc(F)c4nc(C(=O)NC5CN(C(C)C)C5)cn4c3)cc(C)c2n1 [Compound 331, 6-(2,8-dimethylimidazo[1,2-b]pyridazin-6-yl)-8-fluoro-N-(1-isopropylazetidin-3-yl)imidazo[1,2-a]pyridine-2-carboxamide] | < 100 nM
Cc1cn2nc(-c3cc(F)c4nc(C(=O)N(C)C5CCN(C)CC5)cn4c3)cc(C)c2n1 [Compound 332, 6-(2,8-dimethylimidazo[1,2-b]pyridazin-6-yl)-8-fluoro-N-methyl-N-(1-methylpiperidin-4-yl)imidazo[1,2-a]pyridine-2-carboxamide] | < 100 nM
Cc1cn2nc(-c3cc(F)c4nc(C(=O)NCC5CCCN5C)cn4c3)cc(C)c2n1 (stereo not drawn) [Compound 334, 6-(2,8-dimethylimidazo[1,2-b]pyridazin-6-yl)-8-fluoro-N-((1-methylpyrrolidin-2-yl)methyl)imidazo[1,2-a]pyridine-2-carboxamide] | 100 to 1000 nM
Cc1cn2nc(-c3cc(F)c4nc(C(=O)NC[C@H]5CCCCN5C)cn4c3)cc(C)c2n1 [Compound 335, 6-(2,8-dimethylimidazo[1,2-b]pyridazin-6-yl)-8-fluoro-N-[[(2R)-1-methyl-2-piperidyl]methyl]imidazo[1,2-a]pyridine-2-carboxamide] | 100 to 1000 nM
COCCN1CC(NC(=O)c2cn3cc(-c4cc(C)c5nc(C)cn5n4)cc(F)c3n2)C1 [Compound 338, 6-(2,8-dimethylimidazo[1,2-b]pyridazin-6-yl)-8-fluoro-N-[1-(2-methoxyethyl)azetidin-3-yl]imidazo[1,2-a]pyridine-2-carboxamide] | < 100 nM
